Measurements from the supplement of paper PMC6045584.
± gives the standard deviation of the averaged measurements.

Experiments:
MDV3100 = compound: CNC(=O)c1ccc(N2C(=S)N(c3ccc(C#N)c(C(F)(F)F)c3)C(=O)C2(C)C)cc1F [MDV3100]; test: surviving fraction relative to DMSO-only wells; higher = less growth inhibition; conditions: exposure time: 5 days
How it was run: (§1)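 Continuous five-day exposure to inhibitors at 0.5, 1, 5, 10, 50, 100, 500 and 1000 nM started 24 hours after log-phase tumour cell lines were seeded at 250–500 cells per well in 384-well plates. Luminescence was read after 10 minutes at room temperature. Viability is given as surviving fraction, meaning CellTiter-Glo luminescence normalised to the median of DMSO-only wells.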

TIOGUANINE = compound: Nc1nc2[nH]cnc2c(=S)[nH]1 [TIOGUANINE]; test: as above; conditions: exposure time: 5 days
How it was run: as §1

| Test System | surviving fraction (MDV3100; 0.5 nM) | surviving fraction (MDV3100; 1 nM) | surviving fraction (MDV3100; 5 nM) | surviving fraction (MDV3100; 10 nM) | surviving fraction (MDV3100; 50 nM) | surviving fraction (MDV3100; 100 nM) | surviving fraction (MDV3100; 500 nM) | surviving fraction (MDV3100; 1000 nM) | surviving fraction (TIOGUANINE; 0.5 nM) | surviving fraction (TIOGUANINE; 1 nM) | surviving fraction (TIOGUANINE; 5 nM) | surviving fraction (TIOGUANINE; 10 nM) | surviving fraction (TIOGUANINE; 50 nM) | surviving fraction (TIOGUANINE; 100 nM) | surviving fraction (TIOGUANINE; 500 nM) | surviving fraction (TIOGUANINE; 1000 nM) |
| --- | --- | --- | --- | --- | --- | --- | --- | --- | --- | --- | --- | --- | --- | --- | --- | --- |
| SUM44 BREAST | 0.963 ± 0.096 | 0.978 ± 0.08 | 1.06 ± 0.081 | 1.04 ± 0.058 | 1.13 ± 0.13 | 1.09 ± 0.1 | 1.03 ± 0.071 | 1.01 ± 0.1 | 0.946 ± 0.03 | 0.992 ± 0.046 | 1.04 ± 0.035 | 1.04 ± 0.028 | 1.03 ± 0.011 | 1.09 ± 0.086 | 0.97 ± 0.091 | 1.055 ± 0.0085 |
| HS578T BREAST | 0.974 ± 0.073 | 1.05 ± 0.041 | 1.03 ± 0.056 | 0.979 ± 0.091 | 1.15 ± 0.096 | 1.02 ± 0.28 | 1.01 ± 0.053 | 0.991 ± 0.085 | 0.998 ± 0.085 | 0.872 ± 0.14 | 0.944 ± 0.082 | 0.959 ± 0.075 | 0.923 ± 0.12 | 0.985 ± 0.12 | 1.01 ± 0.068 | 0.897 ± 0.17 |
| HU09 BONE | 0.984 ± 0.077 | 1.03 ± 0.11 | 1.05 ± 0.071 | 1.12 ± 0.18 | 1 ± 0.055 | 1.04 ± 0.057 | 0.952 ± 0.053 | 0.954 ± 0.018 | 0.964 ± 0.059 | 1.05 ± 0.071 | 1.05 ± 0.041 | 1.1 ± 0.074 | 1.04 ± 0.062 | 1.09 ± 0.089 | 1.06 ± 0.015 | 0.927 ± 0.11 |
| SCC36 HEADNECK | 0.992 ± 0.091 | 0.955 ± 0.1 | 0.957 ± 0.065 | 1.11 ± 0.068 | 1.09 ± 0.028 | 1.03 ± 0.059 | 0.924 ± 0.051 | 0.907 ± 0.099 | 1.03 ± 0.034 | 1.09 ± 0.028 | 1.16 ± 0.074 | 1.18 ± 0.078 | 1.24 ± 0.082 | 1.12 ± 0.091 | 1.13 ± 0.11 | 1.06 ± 0.1 |
| ZR751 BREAST | 1.12 ± 0.16 | 1.14 ± 0.1 | 1.04 ± 0.042 | 1.04 ± 0.043 | 1.17 ± 0.1 | 1.12 ± 0.076 | 1.22 ± 0.1 | 1.08 ± 0.079 | 1.01 ± 0.07 | 0.969 ± 0.16 | 0.82 ± 0.16 | 0.897 ± 0.064 | 1.12 ± 0.13 | 1.02 ± 0.16 | 1.04 ± 0.013 | 1.07 ± 0.15 |
| HS57T BREAST | 0.866 ± 0.091 | 0.918 ± 0.032 | 0.963 ± 0.033 | 0.947 ± 0.12 | 0.847 ± 0.069 | 0.955 ± 0.043 | 0.923 ± 0.068 | 0.912 ± 0.041 | 0.9547 ± 0.0035 | 1.02 ± 0.087 | 0.99 ± 0.03 | 0.988 ± 0.029 | 0.928 ± 0.04 | 1.03 ± 0.06 | 0.928 ± 0.016 | 0.945 ± 0.064 |
| MG63 BONE | 0.988 ± 0.0044 | 0.953 ± 0.026 | 1.01 ± 0.015 | 0.999 ± 0.028 | 1.02 ± 0.013 | 1.02 ± 0.019 | 0.968 ± 0.03 | 0.931 ± 0.011 | 0.974 ± 0.035 | 0.97 ± 0.015 | 1.01 ± 0.014 | 0.991 ± 0.007 | 1.02 ± 0.026 | 1.03 ± 0.026 | 0.989 ± 0.0069 | 0.958 ± 0.03 |
| VP229 BREAST | 1.05 ± 0.052 | 0.995 ± 0.089 | 0.878 ± 0.095 | 0.905 ± 0.13 | 1 ± 0.12 | 0.994 ± 0.055 | 0.947 ± 0.07 | 0.806 ± 0.077 | 1.07 ± 0.089 | 1.06 ± 0.053 | 1.03 ± 0.031 | 1.04 ± 0.057 | 1.11 ± 0.14 | 1.1 ± 0.012 | 1.14 ± 0.17 | 1.08 ± 0.15 |
| SG27 HEADNECK | 1.064 ± 0.0067 | 1.01 ± 0.12 | 1.07 ± 0.13 | 0.935 ± 0.091 | 1.09 ± 0.04 | 1.19 ± 0.081 | 1.21 ± 0.2 | 1.17 ± 0.19 | 0.982 ± 0.054 | 0.995 ± 0.12 | 1.04 ± 0.091 | 0.984 ± 0.13 | 1 ± 0.089 | 1.02 ± 0.12 | 1.11 ± 0.024 | 0.953 ± 0.13 |
| SCC003 HEADNECK | 0.928 ± 0.12 | 0.808 ± 0.069 | 1 ± 0.049 | 0.996 ± 0.051 | 1.06 ± 0.032 | 1.02 ± 0.059 | 1.02 ± 0.044 | 0.858 ± 0.098 | 0.892 ± 0.14 | 1 ± 0.1 | 1.01 ± 0.033 | 0.99 ± 0.094 | 0.998 ± 0.098 | 1.1 ± 0.12 | 0.988 ± 0.047 | 0.797 ± 0.027 |
| SYO1 SYNOVIAL | 0.989 ± 0.036 | 0.883 ± 0.051 | 0.946 ± 0.018 | 0.546 ± 0.027 | 0.91 ± 0.023 | 0.914 ± 0.032 | 0.987 ± 0.05 | 0.653 ± 0.023 | 0.941 ± 0.043 | 0.925 ± 0.042 | 0.917 ± 0.075 | 0.896 ± 0.021 | 0.785 ± 0.029 | 0.645 ± 0.043 | 0.411 ± 0.022 | 0.354 ± 0.028 |
| SUM159 BREAST | 1.01 ± 0.034 | 1.005 ± 0.0052 | 1.01 ± 0.011 | 0.996 ± 0.01 | 1.01 ± 0.013 | 1.014 ± 0.0025 | 1.02 ± 0.015 | 0.9937 ± 0.0058 | 1.07 ± 0.14 | 1.02 ± 0.025 | 1.02 ± 0.041 | 1.03 ± 0.069 | 1.04 ± 0.075 | 0.97 ± 0.077 | 1.05 ± 0.084 | 1.008 ± 0.006 |
| HCC1806 BREAST | 1.01 ± 0.032 | 1.07 ± 0.067 | 1.13 ± 0.045 | 0.993 ± 0.074 | 1.14 ± 0.045 | 1.12 ± 0.049 | 1.04 ± 0.051 | 1.03 ± 0.06 | 0.989 ± 0.061 | 1.1 ± 0.059 | 1.08 ± 0.11 | 1.08 ± 0.12 | 1.13 ± 0.15 | 1.13 ± 0.19 | 1.03 ± 0.12 | 0.952 ± 0.061 |
| MDAMB468 BREAST | 0.972 ± 0.053 | 0.952 ± 0.072 | 1.05 ± 0.11 | 1.01 ± 0.068 | 1.14 ± 0.094 | 1.04 ± 0.13 | 1.05 ± 0.038 | 0.97 ± 0.11 | 1.02 ± 0.079 | 0.995 ± 0.025 | 1.08 ± 0.056 | 1.06 ± 0.1 | 1.1 ± 0.056 | 1.19 ± 0.087 | 1.04 ± 0.087 | 1.05 ± 0.042 |
| VCAP PROSTATE | 1.04 ± 0.12 | 1.06 ± 0.23 | 1.09 ± 0.12 | 1.11 ± 0.14 | 1.13 ± 0.058 | 1.09 ± 0.15 | 0.837 ± 0.07 | 0.722 ± 0.1 | 1.04 ± 0.18 | 0.99 ± 0.11 | 1.11 ± 0.13 | 1.11 ± 0.12 | 1.14 ± 0.094 | 1.08 ± 0.11 | 0.973 ± 0.082 | 1.02 ± 0.15 |
| HELA CERVIX | 0.931 ± 0.035 | 0.923 ± 0.0096 | 0.929 ± 0.023 | 0.888 ± 0.036 | 0.999 ± 0.034 | 1.02 ± 0.065 | 1.08 ± 0.069 | 1.03 ± 0.047 | 0.998 ± 0.074 | 1.03 ± 0.053 | 0.994 ± 0.015 | 0.997 ± 0.055 | 1.06 ± 0.024 | 1.14 ± 0.019 | 1.14 ± 0.059 | 1.21 ± 0.056 |
| A549 LUNG | 0.971 ± 0.011 | 0.941 ± 0.029 | 0.978 ± 0.011 | 0.934 ± 0.032 | 1 ± 0.038 | 1.01 ± 0.015 | 1.01 ± 0.033 | 0.983 ± 0.04 | 0.946 ± 0.045 | 0.955 ± 0.025 | 0.96 ± 0.046 | 0.952 ± 0.051 | 0.976 ± 0.045 | 0.999 ± 0.064 | 1.01 ± 0.038 | 0.973 ± 0.056 |
| SG32 HEADNECK | 1.21 ± 0.56 | 0.976 ± 0.13 | 0.988 ± 0.033 | 0.794 ± 0.073 | 1.16 ± 0.17 | 1 ± 0.3 | 1.01 ± 0.044 | 1.09 ± 0.26 | 0.916 ± 0.077 | 1.04 ± 0.044 | 1.18 ± 0.22 | 1.2 ± 0.074 | 1.2 ± 0.15 | 0.881 ± 0.05 | 0.962 ± 0.22 | 1.17 ± 0.057 |
